Assays:
Assay in all cases: relative viability (nuclei count vs DMSO), 5 days (fraction); higher = more cells survive
CAP-232 + Lapatinib = compound: C[C@H]([C@@H](C(=O)N)NC(=O)[C@@H]1CSSC[C@@H](C(=O)N[C@H](C(=O)N[C@@H](C(=O)N[C@H](C(=O)N1)CCCCN)CC2=CNC3=CC=CC=C32)CC4=CC=C(C=C4)O)NC(=O)[C@@H](CC5=CC=CC=C5)N)O [CAP-232] + CS(=O)(=O)CCNCc1ccc(-c2ccc3ncnc(Nc4ccc(OCc5cccc(F)c5)c(Cl)c4)c3c2)o1 [Lapatinib] (partner 2 µM)
Method in brief: (§1)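 Cells from lung cancer lines were seeded into 1536-well plates and, one day later, dosed by pin tool. Treatments were either a single drug or a fixed dose of an anchor drug with five library-drug doses (not always all listed) in √10 steps. After 5 days, nuclei were stained in a one-step fixation (final 0.05% Triton X-100, 1% formaldehyde, 1 ug/ml Hoechst) and counted on 4× images, and relative viability is the treated-to-vehicle nuclei ratio, as the median of duplicate plates.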

CAP-232 + Trametinib = compound: C[C@H]([C@@H](C(=O)N)NC(=O)[C@@H]1CSSC[C@@H](C(=O)N[C@H](C(=O)N[C@@H](C(=O)N[C@H](C(=O)N1)CCCCN)CC2=CNC3=CC=CC=C32)CC4=CC=C(C=C4)O)NC(=O)[C@@H](CC5=CC=CC=C5)N)O [CAP-232] + CC(=O)Nc1cccc(-n2c(=O)n(C3CC3)c(=O)c3c(Nc4ccc(I)cc4F)n(C)c(=O)c(C)c32)c1 [Trametinib] (partner 0.02 µM)
Method in brief: as §1

CAP-232 + Navitoclax = compound: C[C@H]([C@@H](C(=O)N)NC(=O)[C@@H]1CSSC[C@@H](C(=O)N[C@H](C(=O)N[C@@H](C(=O)N[C@H](C(=O)N1)CCCCN)CC2=CNC3=CC=CC=C32)CC4=CC=C(C=C4)O)NC(=O)[C@@H](CC5=CC=CC=C5)N)O [CAP-232] + CC1(C)CCC(c2ccc(Cl)cc2)=C(CN2CCN(c3ccc(C(=O)NS(=O)(=O)c4ccc(N[C@H](CCN5CCOCC5)CSc5ccccc5)c(S(=O)(=O)C(F)(F)F)c4)cc3)CC2)C1 [Navitoclax] (partner 0.5 µM)
Method in brief: as §1

CAP-232 + Dasatinib = compound: C[C@H]([C@@H](C(=O)N)NC(=O)[C@@H]1CSSC[C@@H](C(=O)N[C@H](C(=O)N[C@@H](C(=O)N[C@H](C(=O)N1)CCCCN)CC2=CNC3=CC=CC=C32)CC4=CC=C(C=C4)O)NC(=O)[C@@H](CC5=CC=CC=C5)N)O [CAP-232] + Cc1nc(Nc2ncc(C(=O)Nc3c(C)cccc3Cl)s2)cc(N2CCN(CCO)CC2)n1 [Dasatinib] (partner 0.075 µM)
Method in brief: as §1

CAP-232 + Foretinib = compound: C[C@H]([C@@H](C(=O)N)NC(=O)[C@@H]1CSSC[C@@H](C(=O)N[C@H](C(=O)N[C@@H](C(=O)N[C@H](C(=O)N1)CCCCN)CC2=CNC3=CC=CC=C32)CC4=CC=C(C=C4)O)NC(=O)[C@@H](CC5=CC=CC=C5)N)O [CAP-232] + COc1cc2c(Oc3ccc(NC(=O)C4(C(=O)Nc5ccc(F)cc5)CC4)cc3F)ccnc2cc1OCCCN1CCOCC1 [Foretinib] (partner 0.25 µM)
Method in brief: as §1

Cell Line | relative viability (CAP-232 + Lapatinib; first compound 0.4 µM) | relative viability (CAP-232 + Lapatinib; first compound 1.265 µM) | relative viability (CAP-232 + Lapatinib; first compound 4 µM) | relative viability (CAP-232 + Lapatinib; first compound 12.65 µM) | relative viability (CAP-232 + Trametinib; first compound 0.4 µM) | relative viability (CAP-232 + Trametinib; first compound 1.265 µM) | relative viability (CAP-232 + Trametinib; first compound 4 µM) | relative viability (CAP-232 + Trametinib; first compound 12.65 µM) | relative viability (CAP-232 + Navitoclax; first compound 0.4 µM) | relative viability (CAP-232 + Navitoclax; first compound 1.265 µM) | relative viability (CAP-232 + Navitoclax; first compound 4 µM) | relative viability (CAP-232 + Navitoclax; first compound 12.65 µM) | relative viability (CAP-232 + Dasatinib; first compound 0.4 µM) | relative viability (CAP-232 + Dasatinib; first compound 1.265 µM) | relative viability (CAP-232 + Dasatinib; first compound 4 µM) | relative viability (CAP-232 + Dasatinib; first compound 12.65 µM) | relative viability (CAP-232 + Foretinib; first compound 0.4 µM) | relative viability (CAP-232 + Foretinib; first compound 1.265 µM) | relative viability (CAP-232 + Foretinib; first compound 4 µM) | relative viability (CAP-232 + Foretinib; first compound 12.65 µM)
HCC-15 | 0.971 | 0.8 | 0.934 | 0.654 | 0.376 | 0.364 | 0.393 | 0.267 | 0.736 | 0.726 | 0.774 | 0.576 | 0.629 | 0.601 | 0.693 | 0.262 | 1.08 | 1.07 | 1.09 | 0.652
HCC-44 | 1.14 | 1.03 | 1.05 | 0.987 | 0.997 | 1.02 | 1.06 | 1.04 | 1.03 | 0.977 | 1.16 | 1.14 |  |  |  |  |  |  |  | 
HCC-78 | 0.809 | 0.338 | 0.878 | 0.695 | 0.688 | 0.824 | 0.918 | 0.727 | 0.789 | 0.658 | 0.697 | 0.732 | 0.431 | 0.392 | 0.523 | 0.363 | 0.564 | 0.562 | 0.473 | 0.568
HCC-366 | 1.17 | 1.05 | 1.02 | 1 | 0.365 | 0.419 | 0.327 | 0.349 | 1.06 | 1.17 | 1.2 | 1.09 | 0.71 | 0.568 | 0.771 | 0.685 | 0.914 | 0.948 | 0.891 | 0.898
HCC-827 | 0.224 | 0.175 | 0.177 | 0.177 | 0.469 | 0.543 | 0.491 | 0.549 | 0.96 | 1 | 1.03 | 0.993 | 0.312 | 0.302 | 0.312 | 0.23 | 1.05 | 1 | 1.01 | 1.01
HOP-62 | 1.06 |  | 1.33 | 0.996 | 0.333 | 0.348 | 0.382 | 0.423 | 0.792 | 0.955 | 1.17 | 0.902 | 0.703 | 0.667 | 0.655 | 0.547 | 1.04 | 1.07 | 1.01 | 1.03
IA-LM | 0.79 | 0.705 | 0.928 | 0.292 |  |  |  |  | 0.78 | 0.871 | 0.805 | 0.372 |  |  |  |  | 1.15 | 1.14 | 1.22 | 0.386
LCLC-103H |  |  |  |  | 0.662 | 0.666 | 0.723 | 0.703 |  |  |  |  | 0.528 | 0.455 | 0.499 | 0.403 | 0.838 | 0.735 | 0.802 | 0.827
NCI-H358 | 0.395 | 0.393 | 0.436 | 0.445 | 0.111 | 0.138 | 0.13 | 0.098 |  |  |  |  | 0.183 | 0.151 | 0.124 | 0.179 | 0.678 | 0.841 | 0.686 | 0.563
NCI-H441 |  |  |  |  | 0.431 | 0.41 | 0.479 | 0.501 | 0.554 | 0.756 | 0.717 | 0.641 | 0.653 | 0.857 | 0.7 | 0.543 | 0.895 | 1.03 | 0.7 | 1.07
NCI-H522 |  |  |  |  | 0.772 | 0.856 | 0.607 | 0.726 |  |  |  |  | 1.1 | 0.73 | 0.914 | 0.735 |  |  |  | 
NCI-H650 | 1.17 | 0.879 | 0.966 | 0.958 | 0.821 | 1.04 | 0.896 | 1.01 |  |  |  |  | 0.509 | 0.426 | 0.521 | 0.417 | 1.01 | 1 | 0.969 | 0.926
NCI-H661 | 0.496 | 0.592 | 0.465 | 0.344 | 0.523 | 0.536 | 0.578 | 0.377 |  |  |  |  | 0.971 | 0.663 | 0.96 | 0.648 | 0.986 | 0.951 | 1.05 | 1.02
NCI-H1563 | 1.09 | 0.862 | 1.07 | 0.635 |  |  |  |  |  |  |  |  | 0.449 | 0.448 | 0.477 | 0.432 | 0.972 | 0.886 | 0.939 | 0.639
NCI-H1703 | 1.44 | 1.01 | 1.21 | 0.882 |  |  |  |  | 1.09 | 0.901 | 0.964 | 0.793 |  |  |  |  | 0.304 | 0.364 | 0.323 | 0.409
NCI-H1792 | 1.48 | 0.917 | 0.95 | 0.856 | 0.516 | 0.443 | 0.474 | 0.415 | 1.2 | 0.638 | 0.656 | 0.452 | 0.811 | 0.743 | 0.95 | 0.78 |  |  |  | 
NCI-H2342 |  |  |  |  | 0.788 | 0.746 | 0.766 | 0.787 |  |  |  |  | 0.308 | 0.334 | 0.291 | 0.321 | 0.944 | 1.03 | 0.995 | 0.995
SW 900 |  |  |  |  | 0.75 | 0.93 | 0.677 | 0.767 |  |  |  |  | 0.644 | 0.614 | 0.64 | 0.591 | 0.819 | 0.816 | 0.96 | 0.858
